In US9751861B2, “N1-(3,3,3-trifluoro-2-hydroxo-2-methylpropionyl)-piperidine derivatives as inhibitors of pyruvate dehydrogenase kinase” (MERCK PATENT GMBH, priority 2013, dated 2017):

Tests used:
human PDHK2 (12-407) = target: T1, human PDHK2 (12-407) (Homo sapiens, UniProt Q15119); test: Isothermal titration calorimetry (ITC) binding; conditions: 30° C., pH 7.5
T1 construct: The human PDHK2 (12-407) was produced in E. coli; His-tag (cleaved yes); made in house; host or cells: E. coli
Procedure: Isothermal Titration Calorimetry
ITC measurements were performed with a VP-ITC micro calorimeter (Microcal, LLC/GE Healthcare Bio-Sciences AB, Uppsala, Sweden). In general titrations were performed by titrating the protein (50 μM) to the test compound (5 μM) in 12 μl injections. All binding experiments were carried out at 30° C. In general the test compounds were diluted form DMSO stock solutions into the measurement buffer with a maximum final concentration of 1% DMSO. The measurement buffer was 20 mM HEPES, 135 mM KCl, 1 mM TCEP, 2 mM MgCl2, 15 mM NaH2PO4, pH 7.5. The human PDHK2 (12-407) was produced in E. coli as his-tagged protein and purified by affinity chromatography. The tag was removed by side specific proteolysis. Before titration the protein buffer was changed to the measurement buffer containing the same DMSO concentration as the test compound dilution. ITC data analysis was performed using Origin 7 calorimetry software from the same supplier. For most measurements a binding model of one binding site was assumed. According to the applied mathematical model it is possible to calculate the binding constant (KA), the observed binding enthalpy (ΔH^obs) as well as the stoichiometry (N) of the formed complex. Preceding analysis the raw data was corrected for the heats of dilution by extrapolating from the saturation value from the end of titration. In order to allow for direct comparison between the respective experimental series and protein preparations the protein concentration was corrected by referencing titrations to a well behaved standard inhibitor. The apparent stoichiometry values defined the fraction of binding competent protein and compensated for relative errors in protein concentration measurements. This corrected protein concentration was used to set up ITC experiment series with test compounds. Any deviations from ideal 1:1 stoichiometry observed here were attributed to errors in compound concentration. This nominal compound concentration was corrected as well to achieve 1:1 stoichiometry in the fit.

PDH-Elalpha (pSer300) = test: Cellular immunofluorescence assay in HEK293T cells; assay type: cell-based; conditions: Homo sapiens, HEK-293T, 5 hours incubation, anti-PDH-E1alpha pSer300 immunofluorescence, read-out: IC50 (cell data)
Procedure: Cellular Assay for Determination of Compound Activities
Compound activities were determined in a cellular immunofluorescence assay. Human HEK293T cells were seeded into black 384-well plates with clear bottom and grown overnight.
Next day, test compounds were added to the wells and the plates incubated for 5 hours. Following this, cells were fixed with formaldehyde, permeabilised and blocked. The primary antibody, Anti-PDH-Elalpha (pSer300), AP1064 (Merck Millipore) was added and incubated overnight in the plate wells. Next, cells were washed and the seconday antibody, Alexa Fluor 488, goat anti-rabbit ab (A-11008, Invitrogen) was added together with Hoechst 33258 (H3569, Invitrogen) and incubated for 1 hour in the plate wells. Finally, cells were washed and the plates were measured on the laser scanning cytometer acumen hci (TTpLabtech).
The raw data were normalized against a pharmacological inhibitor control and dose response curves were generated by plotting the percent effect values using the software package Genedata screener (Genedata).

PDHK2 = target: T2, PDHK2 (Homo sapiens, UniProt Q15119); test: Biochemical activity testing of PDHK2: PDC inactivation assay; conditions: human rec PDHK2, PDC from porcine heart, ATP 5 μM; read-out: IC50 PDHK2 (enzyme assay)
T2 construct: purchased Carna Bioscience
From the text: Biochemical Activity Testing of PDHK2: PDC Inactivation Assay
The biochemical activity assay for PDHK2 is based on the inactivation of PDC through phosphorylation by PDHK2. The assay is run in two steps: the enzymatic PDHK2 reaction in which isolated PDC is phosphorylated by PDHK2 with ATP as co-substrate and the PDC activity assay in which pyruvate and NAD are converted to acetyl-CoA and NADH. The PDC activity correlates to the increase in NADH and thereby is detectable directly via the increasing fluorescence signal (Exc 340 nm, Em 450 nm). Inhibition of PDHK2 results in a lower phosphorylation status and thereby a less decrease in activity of PDC and a stronger increase in NADH fluorescence signal.
The PDC inactivation assay is performed in Greiner 384-well microtiter plates and is used for high throughput screen. 4 μl of PDHK2 (human, rec, Carna Bioscience, 10 ng/μl-137 nM final concentration) and PDC (isolated from porcine heart, Sigma-Aldrich, 20 mU/ml final concentration) are incubated in the absence or presence of the test compound (10 dilution concentrations) for 30 min at room temperature in kinase buffer (15 mM potassium phosphate buffer, pH 7.0, 60 mM KCl, 1.5 mM DTT, 2.5 mM MgCl2, 0.0125% (w/v) BSA, 0.125% Pluronic F-68). The kinase reaction is started by the addition of 4 μl ATP substrate solution (fc 5 μM in kinase buffer). After 30 min incubation at 37° C. 40 μl of PDC reaction solution (100 mM Tris/HCl, pH 7.8, 0.5 mM EDTA, 1 mM MgCl2, 50 mM NaF, 0.25 mM Coenzyme A, 5 mM pyruvate, 1 mM NAD, 5 mM DTT, […] thiamine pyrophosphate) is added. The first fluorescence measurement is performed on a Perkin Elmer Envision (Exc 340 nm, Em 450 nm). The reaction is incubated for 45 min at room temperature. Afterwards a second fluorescence measurement is performed and the PDC activity is calculated by the difference between both measurements. As full value for the PDHK2 assay the inhibitor-free PDHK2 reaction is used. The pharmacological zero value used is DCA (Sigma-Aldrich) in a final concentration of 3 mM. The inhibitory values (IC50) were determined using either the program Symyx Assay Explorer® or Condosseo® from GeneData.

## CC1CN(C(=O)[C@@](C)(O)C(F)(F)F)CCC1c1ccnn1-c1ccc(F)cc1F (mixture of isomers) [Compound A31, (R)-1-{4-[2-(2,4-difluoro-phenyl)-2H-pyrazol-3-yl]-3-methyl-piperidin-1-yl}-3,3,3-trifluoro-2-hydroxy-2-methyl-propan-1-one]
Human PDHK2 (12-407)
  Kd: < 300 nM
PDH-Elalpha (pSer300)
  IC50: < 300 nM
PDHK2
  IC50: < 300 nM

## COc1ccc(-n2nccc2C2CCN(C(=O)C(C)(O)C(F)(F)F)CC2)c(F)c1 (racemic) [Compound A30, rac-3,3,3-Trifluoro-1-{4-[2-(2-fluoro-4-methoxy-phenyl)-2H-pyrazol-3-yl]-piperidin-1-yl}-2-hydroxy-2-methyl-propan-1-one]
Human PDHK2 (12-407)
  Kd: < 300 nM
PDH-Elalpha (pSer300)
  IC50: 300 to 3000 nM
PDHK2
  IC50: < 300 nM

## Cc1ccc(-n2nccc2C2CCN(C(=O)[C@@](C)(O)C(F)(F)F)CC2)cc1 [Compound A1, (R)-3,3,3-trifluoro-2-hydroxy-2-methyl-1-[4-(2-p-tolyl-2H-pyrazol-3-yl)-piperidin-1-yl]-propan-1-one]
Human PDHK2 (12-407)
  Kd: < 300 nM
PDH-Elalpha (pSer300)
  IC50: 300 to 3000 nM
PDHK2
  IC50: < 300 nM

## COc1ccc(-n2nccc2C2CCN(C(=O)[C@@](C)(O)C(F)(F)F)CC2)cc1 [Compound A2, (R)-3,3,3-Trifluoro-2-hydroxy-1-{4-[2-(4-methoxy-phenyl)-2H-pyrazol-3-yl]-piperidin-1-yl}-2-methyl-propan-1-one]
Human PDHK2 (12-407)
  Kd: < 300 nM
PDH-Elalpha (pSer300)
  IC50: 300 to 3000 nM
PDHK2
  IC50: < 300 nM

## C[C@@](O)(C(=O)N1CCC(c2ccnn2-c2ccccc2C#N)CC1)C(F)(F)F [Compound A3, 2-{5-[1-((R)-3,3,3-Trifluoro-2-hydroxy-2-methyl-propionyl)-piperidin-4-yl]-pyrazol-1-yl}-benzonitrile]
Human PDHK2 (12-407)
  Kd: 300 to 3000 nM
PDH-Elalpha (pSer300)
  IC50: 300 to 3000 nM

## C[C@@](O)(C(=O)N1CCC(c2ccnn2-c2ccccc2F)CC1)C(F)(F)F [Compound A4, (R)-3,3,3-Trifluoro-1-{4-[2-(2-fluoro-phenyl)-2H-pyrazol-3-yl]-piperidin-1-yl}-2-hydroxy-2-methyl-propan-1-one]
Human PDHK2 (12-407)
  Kd: < 300 nM
PDH-Elalpha (pSer300)
  IC50: 300 to 3000 nM
PDHK2
  IC50: < 300 nM

## Cc1ccccc1-n1nccc1C1CCN(C(=O)[C@@](C)(O)C(F)(F)F)CC1 [Compound A5, (R)-3,3,3-Trifluoro-2-hydroxy-2-methyl-1-[4-(2-o-tolyl-2H-pyrazol-3-yl)-piperidin-1-yl]-propan-1-one]
Human PDHK2 (12-407)
  Kd: < 300 nM
PDH-Elalpha (pSer300)
  IC50: 300 to 3000 nM
PDHK2
  IC50: 300 to 3000 nM

## Cc1cccc(-n2nccc2C2CCN(C(=O)[C@@](C)(O)C(F)(F)F)CC2)c1 [Compound A6, (R)-3,3,3-Trifluoro-2-hydroxy-2-methyl-1-[4-(2-m-tolyl-2H-pyrazol-3-yl)-piperidin-1-yl]-propan-1-one]
Human PDHK2 (12-407)
  Kd: < 300 nM
PDH-Elalpha (pSer300)
  IC50: 300 to 3000 nM
PDHK2
  IC50: 300 to 3000 nM

## COc1ccccc1-n1nccc1C1CCN(C(=O)[C@@](C)(O)C(F)(F)F)CC1 [Compound A7, (R)-3,3,3-Trifluoro-2-hydroxy-1-{4-[2-(2-methoxy-phenyl)-2H-pyrazol-3-yl]-piperidin-1-yl}-2-methyl-propan-1-one]
Human PDHK2 (12-407)
  Kd: 300 to 3000 nM
PDH-Elalpha (pSer300)
  IC50: < 300 nM

## C[C@@](O)(C(=O)N1CCC(c2ccnn2-c2cccc(C#N)c2)CC1)C(F)(F)F [Compound A8, 3-{5-[1-((R)-3,3,3-Trifluoro-2-hydroxy-2-methyl-propionyl)-piperidin-4-yl]-pyrazol-1-yl}-benzonitrile]
Human PDHK2 (12-407)
  Kd: < 300 nM
PDH-Elalpha (pSer300)
  IC50: 300 to 3000 nM
PDHK2
  IC50: 300 to 3000 nM

## C[C@@](O)(C(=O)N1CCC(c2ccnn2-c2ccc(C#N)cc2)CC1)C(F)(F)F [Compound A9, 4-{5-[1-((R)-3,3,3-Trifluoro-2-hydroxy-2-methyl-propionyl)-piperidin-4-yl]-pyrazol-1-yl}-benzonitrile]
Human PDHK2 (12-407)
  Kd: < 300 nM
PDH-Elalpha (pSer300)
  IC50: 300 to 3000 nM
PDHK2
  IC50: 300 to 3000 nM

## C[C@@](O)(C(=O)N1CCC(c2ccnn2-c2cccc(F)c2)CC1)C(F)(F)F [Compound A10, (R)-3,3,3-Trifluoro-1-{4-[2-(3-fluoro-phenyl)-2H-pyrazol-3-yl]-piperidin-1-yl}-2-hydroxy-2-methyl-propan-1-one]
Human PDHK2 (12-407)
  Kd: < 300 nM
PDH-Elalpha (pSer300)
  IC50: 300 to 3000 nM
PDHK2
  IC50: < 300 nM

## C[C@@](O)(C(=O)N1CCC(c2ccnn2-c2ccccc2Cl)CC1)C(F)(F)F [Compound A11, (R)-1-{4-[2-(2-Chloro-phenyl)-2H-pyrazol-3-yl]-piperidin-1-yl}-3,3,3-trifluoro-2-hydroxy-2-methyl-propan-1-one]
Human PDHK2 (12-407)
  Kd: < 300 nM
PDH-Elalpha (pSer300)
  IC50: 300 to 3000 nM
PDHK2
  IC50: < 300 nM

## C[C@@](O)(C(=O)N1CCC(c2ccnn2-c2cccc(Cl)c2)CC1)C(F)(F)F [Compound A12, (R)-1-{4-[2-(3-Chloro-phenyl)-2H-pyrazol-3-yl]-piperidin-1-yl}-3,3,3-trifluoro-2-hydroxy-2-methyl-propan-1-one]
Human PDHK2 (12-407)
  Kd: < 300 nM
PDH-Elalpha (pSer300)
  IC50: 3000 to 50000 nM
PDHK2
  IC50: 300 to 3000 nM

## C[C@@](O)(C(=O)N1CCC(c2ccnn2-c2ccc(Cl)cc2)CC1)C(F)(F)F [Compound A13, (R)-1-{4-[2-(4-Chloro-phenyl)-2H-pyrazol-3-yl]-piperidin-1-yl}-3,3,3-trifluoro-2-hydroxy-2-methyl-propan-1-one]
Human PDHK2 (12-407)
  Kd: < 300 nM
PDH-Elalpha (pSer300)
  IC50: 300 to 3000 nM
PDHK2
  IC50: < 300 nM

## C[C@@](O)(C(=O)N1CCC(c2ccnn2-c2ccc(F)cc2)CC1)C(F)(F)F [Compound A14, (R)-3,3,3-Trifluoro-1-{4-[2-(4-fluoro-phenyl)-2H-pyrazol-3-yl]-piperidin-1-yl}-2-hydroxy-2-methyl-propan-1-one]
Human PDHK2 (12-407)
  Kd: < 300 nM
PDH-Elalpha (pSer300)
  IC50: 300 to 3000 nM
PDHK2
  IC50: < 300 nM

## C[C@H]1CN(C(=O)[C@@](C)(O)C(F)(F)F)CC[C@H]1c1ccnn1-c1ccc(F)cc1F [Compound A32, (R)-1-{(3R,4R)-4-[2-(2,4-difluoro-phenyl)-2H-pyrazol-3-yl]-3-methyl-piperidin-1-yl}-3,3,3-trifluoro-2-hydroxy-2-methyl-propan-1-one]
PDH-Elalpha (pSer300)
  IC50: 300 to 3000 nM
PDHK2
  IC50: < 300 nM

## C[C@@H]1CN(C(=O)[C@@](C)(O)C(F)(F)F)CC[C@@H]1c1ccnn1-c1ccc(F)cc1F [Compound A33, (R)-1-{(3S,4S)-4-[2-(2,4-difluoro-phenyl)-2H-pyrazol-3-yl]-3-methyl-piperidin-1-yl}-3,3,3-trifluoro-2-hydroxy-2-methyl-propan-1-one]
PDH-Elalpha (pSer300)
  IC50: < 300 nM
PDHK2
  IC50: < 300 nM
